Publication PMC8773721, “A Small Molecule–Drug Conjugate (SMDC) Consisting of a Modified Camptothecin Payload Linked to an αVß3 Binder for the Treatment of Multiple Cancer Types” (Cancers, 2022)
Where two headings read alike, the source gives them in different places. Marks after values point to notes of the source that are not given here.

How the values were obtained:
NCI-H1975-P-gp cells = test: Cytotoxicity (Alamar Blue), NCI-H1975-P-gp; format: cell-based, human; conditions: 72 h, no elastase
NCI-H1975 cells = test: Cytotoxicity (Alamar Blue), parental NCI-H1975; format: cell-based, human; conditions: 72 h, no elastase
Method: (§1) Cells (6 × 10^3 cells/well) were plated in RPMI-1640 medium supplemented with 2% fetal calf serum (FCS) minimal media (MM) in 96-well plates and allowed to adhere at 37 °C/5% CO2 for 24 h. […] The cells were incubated at 37 °C/5% CO2 for 72 h. Then, Alamar Blue (#DAL1100, Invitrogen, Waltham, MA, USA) was added at a 1:1 ratio, the cells were incubated at 37 °C/5% CO2 for 4 h, and fluorescence (530 nm/590 nm) was measured with a VICTOR X2 Multilabel Reader (PerkinElmer, Waltham, MA, USA). The fluorescent signal was directly proportional to the number of viable cells. The half-maximal growth inhibition (IC50) was determined from the dose–response curves using the GraphPad Prism software.

[1] = target: T1, human P-gp-expressing LLC-PK1 cells (Homo sapiens, UniProt P08183); test: Flux assay in human P-gp-expressing LLC-PK1 (L-MDR1) cells; format: in vitro ADME; conditions: 2 μM, 2 h
T1 construct: Schinkel, Netherlands Cancer Institute; host or cells: LLC-PK1 porcine renal epithelial cells (L-MDR1)
Method: (§2) Before and after incubation for 2 h at 37 °C, samples were taken from both compartments and analyzed by LC-MS/MS. The apparent permeability coefficient (Papp) was calculated for both the apical to basolateral (A → B) and the basolateral to apical (B → A) direction as described by Schwab et al..

Caco-2 cells = test: Flux assay in Caco-2 cells; format: in vitro ADME, human; conditions: 2 μM, 2 h
Method: as §2

NCI-H1975-BCRP cells = test: Cytotoxicity (Alamar Blue), NCI-H1975-BCRP; format: cell-based, human; conditions: 72 h, no elastase
Method: as §1

[2] = tested on: MX-1 TNBC xenograft model
Text: In the MX-1 efficacy study, the in vivo-grown tumor fragments (2 mm × 2 mm × 2 mm) were implanted s.c. in immunocompromised female NMRI nu/nu mice (8–10 weeks, 18–21 g, Taconic M&B A/S). The mice were randomized into control and treatment groups (n = 8) when the MX-1 tumors reached an average size of 25 mm^2.
(§3) Subcutaneous tumor growth was monitored by measuring tumor area (length × width) using a caliper. Animal body weight was monitored as an indicator of treatment-related toxicity. Measurement of tumor area and body weight was performed at least twice weekly. Individual animals were sacrificed when showing >20% body weight loss or when tumors reached a maximum area of ~200 mm^2 unless ulceration or other predefined humane endpoints were met. At study termination, the animals were sacrificed by cervical dislocation under CO2 anesthesia. T/C (treatment/control) ratios were calculated using the final mean tumor areas at study or control group termination. Treatment responses were defined on the last day of the vehicle group (Day 38 for 786-O, Day 86 for MX-1, Day 31 for NCI-H69, and Day 24 for SW480) using the RECIST criteria [59]. Progressive disease (PD) was defined as a greater than 20% increase in tumor size. Partial response (PR) was defined as a greater than 30% reduction in tumor size. Complete response (CR) was defined as an absence of any palpable tumor mass. No tumor growth or a slight reduction (<30%) or small increase (<20%) in tumor size was defined as stable disease (SD).

[3] = tested on: NCI-H69 SCLC xenograft model; test: NCI-H69 xenograft antitumor efficacy and tolerability; format: in vivo, mouse; conditions: for Treatment/Control Ratio / Response: PD (progressive disease) / Response: SD (stable disease): NCI-H69, Day 31; for Response: PD (progressive disease) / Response: SD (stable disease): RECIST
Method: Irinotecan, doxorubicin, topotecan, cisplatin, and 5-FU were diluted in 0.9% NaCl.
In the NCI-H69 efficacy study, immunocompromised female NMRI nu/nu mice (8–10 weeks, 18–21 g, Taconic M&B A/S) were inoculated s.c. with 3 × 10^6 NCI-H69 cells suspended in 50% Matrigel®/50% medium. The mice were randomized into control and treatment groups (n = 8) when the NCI-H69 tumors reached an average size of 25 mm^2.
as §3

[4] = tested on: SW480 CRC xenograft model; test: SW480 xenograft antitumor efficacy; format: in vivo, mouse; conditions: for Treatment/Control Ratio: Day 24; for Response: PD (progressive disease) / Response: PR (partial response) / Response: SD (stable disease): Day 24, RECIST
Text: In the SW480 efficacy study, immunocompromised female NMRI nu/nu mice (8–10 weeks, 18–21 g, Taconic M&B A/S) were inoculated subcutaneously with 3 × 10^6 SW480 cells suspended in 50% Matrigel®/50% medium. The mice were randomized into control and treatment groups (n = 8) when the SW480 tumors reached an average size of 25 mm^2.
Subcutaneous tumor growth was monitored by measuring tumor area (length × width) using a caliper. Animal body weight was monitored as an indicator of treatment-related toxicity. Measurement of tumor area and body weight was performed at least twice weekly. Individual animals were sacrificed when showing >20% body weight loss or when tumors reached a maximum area of ~200 mm^2 unless ulceration or other predefined humane endpoints were met. At study termination, the animals were sacrificed by cervical dislocation under CO2 anesthesia. T/C (treatment/control) ratios were calculated using the final mean tumor areas at study or control group termination. […] Progressive disease (PD) was defined as a greater than 20% increase in tumor size. Partial response (PR) was defined as a greater than 30% reduction in tumor size. Complete response (CR) was defined as an absence of any palpable tumor mass. No tumor growth or a slight reduction (<30%) or small increase (<20%) in tumor size was defined as stable disease (SD).

[5] = topotecan 0.5 mg/kg, 7 on/7 off, i.v.
[6] = cisplatin 3 mg/kg, Q3Dx14, i.p.
[7] = irinotecan 15 mg/kg, 4 on/3 off, i.v.
[8] = irinotecan 30 mg/kg, Q2/3D, i.v.
[9] = MX-1, irinotecan 15 mg/kg, 4 on/3 off, i.v., Day 86, RECIST
[10] = MX-1, irinotecan 30 mg/kg, Q2/3Dx9, i.v., Day 86, RECIST

T1 sequence (P08183 whole entry): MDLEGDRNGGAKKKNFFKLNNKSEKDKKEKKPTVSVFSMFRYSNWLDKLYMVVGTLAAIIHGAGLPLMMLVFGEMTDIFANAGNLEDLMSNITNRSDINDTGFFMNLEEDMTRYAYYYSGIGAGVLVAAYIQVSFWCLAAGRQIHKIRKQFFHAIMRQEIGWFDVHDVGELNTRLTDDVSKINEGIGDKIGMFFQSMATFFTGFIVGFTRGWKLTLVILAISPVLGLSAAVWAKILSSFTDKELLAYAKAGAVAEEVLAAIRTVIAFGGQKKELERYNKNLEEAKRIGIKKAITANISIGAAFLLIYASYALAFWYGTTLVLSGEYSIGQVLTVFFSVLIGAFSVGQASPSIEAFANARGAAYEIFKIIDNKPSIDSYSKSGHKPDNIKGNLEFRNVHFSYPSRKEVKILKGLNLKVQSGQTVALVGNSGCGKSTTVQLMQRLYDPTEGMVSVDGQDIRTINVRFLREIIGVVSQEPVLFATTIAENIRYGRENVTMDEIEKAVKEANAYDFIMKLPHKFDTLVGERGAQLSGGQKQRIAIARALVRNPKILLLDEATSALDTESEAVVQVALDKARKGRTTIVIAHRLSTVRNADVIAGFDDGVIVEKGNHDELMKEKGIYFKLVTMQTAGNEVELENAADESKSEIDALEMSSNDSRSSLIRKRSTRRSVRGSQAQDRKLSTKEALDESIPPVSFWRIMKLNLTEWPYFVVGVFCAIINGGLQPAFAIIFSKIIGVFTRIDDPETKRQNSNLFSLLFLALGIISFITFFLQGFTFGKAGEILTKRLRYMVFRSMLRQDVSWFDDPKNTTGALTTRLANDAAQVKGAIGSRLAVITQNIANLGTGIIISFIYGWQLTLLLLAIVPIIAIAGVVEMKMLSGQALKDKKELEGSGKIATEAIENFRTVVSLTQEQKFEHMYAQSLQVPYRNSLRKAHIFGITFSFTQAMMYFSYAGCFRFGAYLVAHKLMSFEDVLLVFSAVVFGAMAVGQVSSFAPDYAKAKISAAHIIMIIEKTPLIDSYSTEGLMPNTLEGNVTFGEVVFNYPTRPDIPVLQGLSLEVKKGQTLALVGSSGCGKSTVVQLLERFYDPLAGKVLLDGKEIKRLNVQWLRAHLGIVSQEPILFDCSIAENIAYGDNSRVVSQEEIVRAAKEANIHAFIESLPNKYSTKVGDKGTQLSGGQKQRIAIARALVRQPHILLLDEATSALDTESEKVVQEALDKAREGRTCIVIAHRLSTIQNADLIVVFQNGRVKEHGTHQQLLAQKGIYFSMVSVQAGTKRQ

CCc1c2c(nc3ccc(O)cc13)-c1cc3c(c(=O)n1C2)COC(=O)[C@]3(O)CC [SN38]
IC50 (NCI-H1975-P-gp cells): 141 nM
IC50 (NCI-H1975 cells): 45 nM
Efflux Ratio [1]: 16
Permeability A → B [1]: 1 ×10⁻⁶ cm/s
Efflux Ratio (Caco-2 cells): 36
Permeability A → B (Caco-2 cells): 0.8 ×10⁻⁶ cm/s
IC50 (NCI-H1975-BCRP cells): 512 nM

COc1cccc2c1C(=O)c1c(O)c3c(c(O)c1C2=O)C[C@@](O)(C(=O)CO)C[C@@H]3O[C@H]1C[C@H](N)[C@H](O)[C@H](C)O1 [Doxorubicin]
Treatment/Control Ratio ([2]; MX-1, doxorubicin 10 mg/kg, Q14Dx2, i.v., Day 86): 0.49 ***

CC[C@@]1(O)C(=O)OCc2c1cc1n(c2=O)Cc2cc3c(CN(C)C)c(O)ccc3nc2-1 [Topotecan]
Treatment/Control Ratio [3, 5]: 0.20 ***
Response: PD (progressive disease) [3, 5]: 7/8
Response: SD (stable disease) [3, 5]: 1/8
Relative body weight loss ([3]; NCI-H69 tumor-bearing mice, topotecan 0.5 mg/kg, 7 on/7 off, i.v.): > 10%

N.N.[Cl][Pt][Cl] [Cisplatin]
Treatment/Control Ratio [3, 6]: 0.25 ***
Response: PD (progressive disease) [3, 6]: 7/8
Response: SD (stable disease) [3, 6]: 1/8
Relative body weight loss ([3]; NCI-H69 tumor-bearing mice, cisplatin 3 mg/kg, Q3Dx14, i.p.): > 10%
Animal deaths ([3]; NCI-H69 tumor-bearing mice, cisplatin 3 mg/kg, Q3Dx14, i.p., Day 46): one animal died

O=c1[nH]cc(F)c(=O)[nH]1 [5-FU, 5-fluorouracil]
Treatment/Control Ratio ([4]; 5-FU 100 mg/kg, Q7D, i.p.): 0.54 ***
Response: PD (progressive disease) ([4]; 5-FU 100 mg/kg, Q7D, i.p.): PD: 8/8

CCc1c2c(nc3ccc(OC(=O)N4CCC(N5CCCCC5)CC4)cc13)-c1cc3c(c(=O)n1C2)COC(=O)[C@]3(O)CC [Irinotecan]
Tumor regrowth after treatment cessation ([4]; all VIP236- and irinotecan-treated mice): moderate tumor regrowth
Treatment/Control Ratio [4, 7]: 0.13 ***
Response: PR (partial response) [4, 7]: 5/8
Response: SD (stable disease) [4, 7]: 3/8
Treatment/Control Ratio [4, 8]: 0.15 ***
Response: PD (progressive disease) [4, 8]: 1/8
Response: PR (partial response) [4, 8]: 4/8
Response: SD (stable disease) [4, 8]: 3/8
Treatment/Control Ratio ([2]; MX-1, irinotecan 15 mg/kg, 4 on/3 off, i.v., Day 86): 0.002 ***
Response: CR (complete response) [2, 9]: CR: 4/8, PR: 4/8
Response: PR (partial response) [2, 9]: CR: 4/8, PR: 4/8
Tumor regrowth after treatment was stopped ([2]; MX-1, irinotecan 30 mg/kg, Q2/3Dx9, i.v.): clear tumor regrowth
Treatment/Control Ratio ([2]; MX-1, irinotecan 30 mg/kg, Q2/3Dx9, i.v., Day 86): 0.15 ***^, #
Response: PR (partial response) [2, 10]: 5/7
Response: SD (stable disease) [2, 10]: 2/7
Relative body weight loss ([2]; mouse, in vivo): > 10%
